In PMC5392048 (Journal of Central Nervous System Disease, 2017):

What was measured:
P-gp = conditions: read-out: inhibitory concentration (Ki) for P-gp; cited from earlier work
[1] = Unbound plasma concentration-time profile of the inhibitors in rats; assay type: in vivo, rat
OATP1B1 = conditions: read-out: Ki for the uptake transporters (OATP1B1); cited from earlier work

| Compound | Ki (P-gp) | time unbound plasma level maintained above Ki (Iu/Ki > 1) ([1]; elacridar 5 mg/kg iv, rat plasma, Ki for P-gp) | unbound peak plasma concentration relative to Ki for P-gp ([1]; elacridar 5 mg/kg iv, rat plasma, peak concentration) | maximum unbound concentration in plasma ([1]; rifampicin 30 mg/kg oral, rat) | Ki (OATP1B1) |
| --- | --- | --- | --- | --- | --- |
| COc1cc2c(cc1OC)CN(CCc1ccc(NC(=O)c3cccc4c(=O)c5cccc(OC)c5[nH]c34)cc1)CC2 [elacridar] | […] | ~ 15 hours | […] | – | – |
| CO[C@H]1/C=C/O[C@@]2(C)Oc3c(C)c(O)c4c(O)c(c(/C=N/N5CCN(C)CC5)c(O)c4c3C2=O)NC(=O)/C(C)=C\C=C\[C@H](C)[C@H](O)[C@@H](C)[C@@H](O)[C@@H](C)[C@H](OC(C)=O)[C@@H]1C [rifampicin] | – | – | – | 1.8 µM | 1100 nM |
